From PubChem BioAssay AID248 (DTP/NCI, 2004)
Values joined by “and” are separate entries in the source; they are usually repeats but may differ in a detail not shown here. Equal entries are not always repeated. Toxic doses and inconclusive results are not listed. Cut-off read from the data, not from the text of the source: active = T/C of 150% or more; inactive = T/C below 125%.

Test system: L1210 leukemia ip in BDF1 mice, survival T/C
Assay: NCI In Vivo Anticancer Drug Screen. Data for tumor model L1210 Leukemia (intraperitoneal) in B6D2F1 (BDF1) mice
Conditions: endpoint: mean survival time, higher = longer survival
Procedure, shortened: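 Tumor was transplanted into mice, which were then dosed with test compound or vehicle alone. Survival was recorded for each group, and the treated figure was expressed relative to the control figure.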

[1] = dose: 100.0 mg/kg/injection, schedule: Q01DX009 (ip), vehicle: Klucel (hydroxypropylcellulose) (HPC)
[2] = dose: 200.0 mg/kg/injection, schedule: Q01DX009 (ip), vehicle: Klucel (hydroxypropylcellulose) (HPC)
[3] = dose: 400.0 mg/kg/injection, schedule: Q01DX009 (ip), vehicle: Klucel (hydroxypropylcellulose) (HPC)
[4] = dose: 100.0 mg/kg/injection, schedule: Q01DX009 (ip), vehicle: saline with Tween-80
[5] = dose: 200.0 mg/kg/injection, schedule: Q01DX009 (ip), vehicle: saline with Tween-80
[6] = dose: 400.0 mg/kg/injection, schedule: Q01DX009 (ip), vehicle: saline with Tween-80
[7] = dose: 100.0 mg/kg/injection, schedule: Q01DX001 (ip), vehicle: saline
[8] = dose: 200.0 mg/kg/injection, schedule: Q01DX001 (ip), vehicle: saline
[9] = dose: 400.0 mg/kg/injection, schedule: Q01DX001 (ip), vehicle: saline

Measured: T/C

CCOC(Cl)CCl (stereo unspecified)
inactive: dose: 6.25 mg/kg/injection, schedule: Q01DX009 (ip), vehicle: saline with Tween-80 106 % of control | dose: 12.5 mg/kg/injection, schedule: Q01DX001 (ip), vehicle: saline with Tween-80 97 % of control | dose: 12.5 mg/kg/injection, schedule: Q01DX009 (ip), vehicle: saline with Tween-80 100 % of control | dose: 25.0 mg/kg/injection, schedule: Q01DX001 (ip), vehicle: saline with Tween-80 97 % of control | dose: 25.0 mg/kg/injection, schedule: Q01DX009 (ip), vehicle: saline with Tween-80 108 % of control | dose: 50.0 mg/kg/injection, schedule: Q01DX001 (ip), vehicle: saline with Tween-80 93 % of control and 105 % of control | dose: 50.0 mg/kg/injection, schedule: Q01DX009 (ip), vehicle: saline with Tween-80 101 % of control

Cc1cc2cccc[n+]2cc1C
inactive: dose: 12.5 mg/kg/injection, schedule: Q01DX009 (ip), vehicle: saline 95 % of control | dose: 25.0 mg/kg/injection, schedule: Q01DX009 (ip), vehicle: saline 98 % of control

CCCCCCCCOP(OCCCCCCCC)OCCCCCCCC
inactive: dose: 100.0 mg/kg/injection, schedule: Q04DX003 (ip), vehicle: saline 95 % of control | dose: 200.0 mg/kg/injection, schedule: Q04DX003 (ip), vehicle: saline 98 % of control | dose: 400.0 mg/kg/injection, schedule: Q04DX003 (ip), vehicle: saline 104 % of control

N#C/C(=C\c1cc(Cl)cc(Cl)c1O)c1ccc([N+](=O)[O-])cc1
inactive: dose: 100.0 mg/kg/injection, schedule: Q04DX003 (ip), vehicle: saline with Tween-80 90 % of control | dose: 200.0 mg/kg/injection, schedule: Q04DX003 (ip), vehicle: saline with Tween-80 92 % of control

CSCCC(NC(=O)COc1ccc(Cl)cc1Cl)C(=O)O (stereo unspecified)
inactive: [1] 100 % of control | [2] 101 % of control | [3] 108 % of control

C/C=C\c1ccc(OCCOC(=O)Nc2c(C)cccc2C)c(OC)c1
inactive: [4] 92 % of control | [5] 89 % of control | [6] 87 % of control

CC1(C)C(=NNc2ccc([N+](=O)[O-])cc2[N+](=O)[O-])C(C)(C)C1(Cl)Cl
inactive: dose: 50.0 mg/kg/injection, schedule: Q04DX002 (ip), vehicle: Klucel (hydroxypropylcellulose) (HPC) 97 % of control | dose: 100.0 mg/kg/injection, schedule: Q04DX002 (ip), vehicle: Klucel (hydroxypropylcellulose) (HPC) 118 % of control | dose: 200.0 mg/kg/injection, schedule: Q04DX002 (ip), vehicle: Klucel (hydroxypropylcellulose) (HPC) 105 % of control

BrCCCCCc1ccccc1
inactive: [7] 106 % of control | [8] 107 % of control | [9] 101 % of control

O=C(/C(=C\c1ccccc1)Oc1ccc([N+](=O)[O-])cc1)c1ccccc1
inactive: [7] 88 % of control | [8] 92 % of control | [9] 95 % of control

CC(=O)OCC(=O)[C@@]1(O)CC[C@H]2[C@@H]3CCC4=CC(=O)[C@H](C)C[C@]4(C)[C@@]3(F)[C@@H](O)C[C@@]21C
inactive: dose: 50.0 mg/kg/injection, schedule: Q01DX Z (sc), vehicle: steriod suspending solution 114 % of control | dose: 100.0 mg/kg/injection, schedule: Q01DX Z (sc), vehicle: steriod suspending solution 114 % of control

CCN(CC)CCOc1ccc(N)cc1
inactive: [7] 94 % of control | [8] 94 % of control | [9] 100 % of control

CCCc1ccccc1O
inactive: dose: 100.0 mg/kg/injection, schedule: Q04DX003 (ip), vehicle: alcohol 97 % of control | dose: 200.0 mg/kg/injection, schedule: Q04DX003 (ip), vehicle: alcohol 94 % of control

NN1Cc2ccc3c4c(ccc(c24)C1)C=C3
inactive: dose: 15.0 mg/kg/injection, schedule: Q01DX001 (ip), vehicle: carboxymethylcellulose (CMC) 108 % of control | dose: 30.0 mg/kg/injection, schedule: Q01DX001 (ip), vehicle: carboxymethylcellulose (CMC) 97 % of control | dose: 60.0 mg/kg/injection, schedule: Q01DX001 (ip), vehicle: carboxymethylcellulose (CMC) 101 % of control

CCC(Cl)COP(=O)(OCC(Cl)CC)C(CC)OP(=S)(OCC(Cl)CC)OCC(Cl)CC (stereo unspecified)
inactive: dose: 87.5 mg/kg/injection, schedule: Q01DX009 (ip), vehicle: Klucel (hydroxypropylcellulose) (HPC) 95 % of control | dose: 175.0 mg/kg/injection, schedule: Q01DX009 (ip), vehicle: Klucel (hydroxypropylcellulose) (HPC) 99 % of control

c1ccc(C2=Nc3ccccc3NC2c2ccccc2)cc1 (stereo unspecified)
inactive: dose: 50.0 mg/kg/injection, schedule: Q04DX003 (ip), vehicle: Klucel (hydroxypropylcellulose) (HPC) 100 % of control | dose: 100.0 mg/kg/injection, schedule: Q04DX003 (ip), vehicle: Klucel (hydroxypropylcellulose) (HPC) 89 % of control | dose: 200.0 mg/kg/injection, schedule: Q04DX003 (ip), vehicle: Klucel (hydroxypropylcellulose) (HPC) 98 % of control

O=S(=O)(Cl)OC1C2COC(O2)C(OS(=O)(=O)Cl)C1OS(=O)(=O)Cl (stereo unspecified)
inactive: dose: 12.5 mg/kg/injection, schedule: Q04DX003 (ip), vehicle: saline with Tween-80 102 % of control | dose: 25.0 mg/kg/injection, schedule: Q04DX003 (ip), vehicle: saline with Tween-80 92 % of control | dose: 50.0 mg/kg/injection, schedule: Q04DX003 (ip), vehicle: saline with Tween-80 96 % of control

CN(N)C(=O)Nc1cccc(Cl)c1
inactive: dose: 75.0 mg/kg/injection, schedule: Q01DX001 (ip), vehicle: carboxymethylcellulose (CMC) 102 % of control | dose: 150.0 mg/kg/injection, schedule: Q01DX001 (ip), vehicle: carboxymethylcellulose (CMC) 107 % of control | dose: 300.0 mg/kg/injection, schedule: Q01DX001 (ip), vehicle: carboxymethylcellulose (CMC) 107 % of control

CN(C)C(=O)Nc1ccc([N+](=O)[O-])cc1[N+](=O)[O-]
inactive: dose: 100.0 mg/kg/injection, schedule: Q01DX001 (ip), vehicle: saline with Tween-80 96 % of control | dose: 200.0 mg/kg/injection, schedule: Q01DX001 (ip), vehicle: saline with Tween-80 89 % of control | dose: 400.0 mg/kg/injection, schedule: Q01DX001 (ip), vehicle: saline with Tween-80 94 % of control | dose: 800.0 mg/kg/injection, schedule: Q04DX002 (ip), vehicle: saline with Tween-80 104 % of control and 107 % of control

CC1CN1P(=O)(OCCCl)N1CC1C (stereo unspecified)
inactive: dose: 20.0 mg/kg/injection, schedule: Q01DX Z (ip), vehicle: saline 97 % of control | dose: 40.0 mg/kg/injection, schedule: Q01DX Z (ip), vehicle: saline 100 % of control | dose: 80.0 mg/kg/injection, schedule: Q01DX Z (ip), vehicle: saline 108 % of control | dose: 160.0 mg/kg/injection, schedule: Q01DX Z (ip), vehicle: saline 117 % of control

CC1CN(Cc2ccc([N+](=O)[O-])cc2)CC(C)N1N (stereo unspecified)
inactive: dose: 50.0 mg/kg/injection, schedule: Q01DX005 (ip), vehicle: saline with Tween-80 98 % of control | dose: 100.0 mg/kg/injection, schedule: Q01DX005 (ip), vehicle: saline with Tween-80 103 % of control

Cc1ccc(/C([O-])=C(\C(=S)Nc2cccc(C(F)(F)F)c2)[n+]2ccccc2)cc1
inactive: [1] 103 % of control | [2] 103 % of control | [3] 94 % of control

O=c1c2ncn(C3OC(CO)C(O)C3O)c2nc2nc[nH]n12 (stereo unspecified)
inactive: dose: 100.0 mg/kg/injection, schedule: Q01DX005 (ip), vehicle: saline 93 % of control | dose: 200.0 mg/kg/injection, schedule: Q01DX005 (ip), vehicle: saline 98 % of control

O=C1NC(=O)C(Cc2ccc(Cl)cc2)C(=O)N1
inactive: [4] 103 % of control | dose: 100.0 mg/kg/injection, schedule: Q04DX002 (ip), vehicle: saline with Tween-80 93 % of control | [5] 98 % of control | dose: 200.0 mg/kg/injection, schedule: Q04DX002 (ip), vehicle: saline with Tween-80 101 % of control | [6] 98 % of control | dose: 400.0 mg/kg/injection, schedule: Q04DX002 (ip), vehicle: saline with Tween-80 101 % of control
